How the values were obtained:
Test in all cases: relative viability (nuclei count vs DMSO), 5 days (fraction); higher = more cells survive
Lapatinib + Tozasertib = compound: CS(=O)(=O)CCNCc1ccc(-c2ccc3ncnc(Nc4ccc(OCc5cccc(F)c5)c(Cl)c4)c3c2)o1 [Lapatinib] + Cc1cc(Nc2cc(N3CCN(C)CC3)nc(Sc3ccc(NC(=O)C4CC4)cc3)n2)n[nH]1 [Tozasertib] (partner 0.1 µM)
Procedure, shortened: (§1)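 Lung cancer cell lines were pin-tool dosed in 1536-well plates on the day after seeding, with either a lone drug or a fixed anchor-drug dose plus five library-drug doses (not always all listed) in √10 steps. Nuclei were counted on 4× images after 5 days. Relative viability is the ratio of treated-well to vehicle-well nuclei counts, with each value a median of duplicate plates.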

Wnt-C59 + Pemetrexed = compound: CC1=NC=CC(=C1)C2=CC=C(C=C2)CC(=O)NC3=CC=C(C=C3)C4=CN=CC=C4 [Wnt-C59] + Nc1nc2[nH]cc(CCc3ccc(C(=O)N[C@@H](CCC(=O)O)C(=O)O)cc3)c2c(=O)[nH]1 [Pemetrexed] (partner 0.2 µM)
Procedure, shortened: as §1

Lapatinib + Phenformin = compound: CS(=O)(=O)CCNCc1ccc(-c2ccc3ncnc(Nc4ccc(OCc5cccc(F)c5)c(Cl)c4)c3c2)o1 [Lapatinib] + N=C(N)NC(=N)NCCc1ccccc1 [Phenformin] (partner 250 µM)
Procedure, shortened: as §1

Wnt-C59 + Olaparib = compound: CC1=NC=CC(=C1)C2=CC=C(C=C2)CC(=O)NC3=CC=C(C=C3)C4=CN=CC=C4 [Wnt-C59] + O=C(c1cc(Cc2n[nH]c(=O)c3ccccc23)ccc1F)N1CCN(C(=O)C2CC2)CC1 [Olaparib] (partner 8 µM)
Procedure, shortened: as §1

Cell Line	relative viability (Lapatinib + Tozasertib; first compound 0.02 µM)	relative viability (Lapatinib + Tozasertib; first compound 0.06325 µM)	relative viability (Lapatinib + Tozasertib; first compound 0.2 µM)	relative viability (Lapatinib + Tozasertib; first compound 0.6325 µM)	relative viability (Lapatinib + Tozasertib; first compound 2 µM)	relative viability (Wnt-C59 + Pemetrexed; first compound 0.001 µM)	relative viability (Wnt-C59 + Pemetrexed; first compound 0.01 µM)	relative viability (Wnt-C59 + Pemetrexed; first compound 0.03162 µM)	relative viability (Wnt-C59 + Pemetrexed; first compound 0.1 µM)	relative viability (Lapatinib + Phenformin; first compound 0.02 µM)	relative viability (Lapatinib + Phenformin; first compound 0.06325 µM)	relative viability (Lapatinib + Phenformin; first compound 0.2 µM)	relative viability (Lapatinib + Phenformin; first compound 0.6325 µM)	relative viability (Lapatinib + Phenformin; first compound 2 µM)	relative viability (Wnt-C59 + Olaparib; first compound 0.001 µM)	relative viability (Wnt-C59 + Olaparib; first compound 0.01 µM)	relative viability (Wnt-C59 + Olaparib; first compound 0.03162 µM)	relative viability (Wnt-C59 + Olaparib; first compound 0.1 µM)
HOP-62	0.334	0.343	0.377	0.343	0.295	0.34	0.294	0.353	0.29	0.499	0.641	0.635	0.631	0.695	0.523	0.266	0.363	0.343
LCLC-103H	0.419	0.448	0.455	0.407	0.384	0.452	0.467	0.482	0.505	0.276	0.271	0.316	0.363	0.382	0.81	0.737	0.699	0.793
Calu-6	–	–	–	–	–	–	–	–	–	–	–	–	–	–	0.572	0.576	0.698	0.614
NCI-H1650	0.354	0.325	0.399	0.288	0.168	0.354	0.442	0.38	0.422	0.442	0.313	0.461	0.31	0.307	0.78	0.817	0.802	0.684
NCI-H1703	–	–	–	–	–	–	–	–	–	–	–	–	–	–	0.507	0.368	0.611	0.322
LK-2	–	–	0.174	0.146	0.19	0.332	0.295	0.323	0.331	–	–	0.606	0.663	0.419	0.728	0.819	0.739	0.748
LCLC-97TM1	–	–	0.214	0.229	0.176	0.169	0.181	0.18	0.183	–	–	0.462	0.407	0.471	0.403	0.434	0.358	0.323
NCI-H1793	–	0.286	0.213	0.185	0.142	0.813	0.693	0.914	0.953	–	0.313	0.265	0.329	0.225	0.779	0.734	1.01	0.841
SW 900	–	0.35	0.374	0.298	0.276	0.505	0.469	0.483	0.478	–	0.484	0.554	0.554	0.531	0.887	0.814	0.987	0.987
SK-MES-1	0.894	0.996	1.07	0.943	0.495	0.92	0.982	0.986	0.827	0.62	0.684	0.684	0.563	0.306	0.662	0.684	0.863	0.615
NCI-H2023	0.249	–	0.191	0.204	0.137	0.238	0.258	0.221	0.24	0.395	–	0.417	0.429	0.307	0.498	0.517	0.555	0.411
NCI-H1792	–	–	–	–	–	0.723	0.714	0.777	1.18	–	–	0.219	0.207	0.289	0.487	0.48	0.525	0.385
NCI-H661	0.377	0.367	0.358	0.348	0.352	0.884	0.878	0.91	0.884	0.273	0.263	0.273	0.265	0.268	0.739	0.73	0.797	0.698
NCI-H1915	–	0.367	0.437	0.383	0.319	0.502	0.464	0.517	0.505	–	0.375	0.384	0.361	0.39	0.256	0.266	0.248	0.239
EPLC-272H	–	–	0.21	0.2	0.239	0.38	0.354	0.318	0.315	–	–	0.243	0.266	0.241	0.778	0.854	0.942	0.842
ChaGo-K-1	0.218	0.194	0.206	0.2	0.208	0.258	0.259	0.252	0.266	0.379	0.386	0.465	0.454	0.414	0.419	0.417	0.462	0.435
NCI-H3122	–	0.366	0.479	0.341	0.349	0.219	0.216	0.197	0.195	–	0.379	0.392	0.385	0.33	0.633	0.549	0.637	0.504
IA-LM	–	–	–	–	–	–	–	–	–	–	–	–	–	–	0.848	0.873	0.969	0.712
EMC-BAC-2	0.309	0.344	0.309	0.319	0.299	0.474	0.447	0.426	0.439	0.422	0.407	0.532	0.549	0.499	0.497	0.488	0.486	0.482
NCI-H522	–	0.433	0.523	0.561	0.513	1.18	1.03	1.17	0.855	–	0.557	0.554	0.674	0.546	0.694	0.74	0.565	0.581
NCI-H1734	0.272	0.276	0.274	0.242	0.232	0.414	0.389	0.423	0.394	0.407	0.288	0.374	0.451	0.414	0.615	0.612	0.672	0.282
LC-2-ad	–	0.392	0.444	0.456	0.372	0.282	0.297	0.271	0.283	–	0.438	0.551	0.478	0.519	0.725	0.74	0.716	0.356

Cell Line	relative viability (Lapatinib + Tozasertib; first compound 0.02 µM)	relative viability (Lapatinib + Tozasertib; first compound 0.06325 µM)	relative viability (Lapatinib + Tozasertib; first compound 0.2 µM)	relative viability (Lapatinib + Tozasertib; first compound 0.6325 µM)	relative viability (Lapatinib + Tozasertib; first compound 2 µM)	relative viability (Wnt-C59 + Pemetrexed; first compound 0.001 µM)	relative viability (Wnt-C59 + Pemetrexed; first compound 0.01 µM)	relative viability (Wnt-C59 + Pemetrexed; first compound 0.03162 µM)	relative viability (Wnt-C59 + Pemetrexed; first compound 0.1 µM)	relative viability (Lapatinib + Phenformin; first compound 0.02 µM)	relative viability (Lapatinib + Phenformin; first compound 0.06325 µM)	relative viability (Lapatinib + Phenformin; first compound 0.2 µM)	relative viability (Lapatinib + Phenformin; first compound 0.6325 µM)	relative viability (Lapatinib + Phenformin; first compound 2 µM)	relative viability (Wnt-C59 + Olaparib; first compound 0.001 µM)	relative viability (Wnt-C59 + Olaparib; first compound 0.01 µM)	relative viability (Wnt-C59 + Olaparib; first compound 0.03162 µM)	relative viability (Wnt-C59 + Olaparib; first compound 0.1 µM)
ABC-1	0.155	0.187	0.156	0.155	0.16	–	–	–	–	0.25	0.25	0.223	0.215	0.21	1	0.898	0.502	0.846
SW 1573	0.121	0.164	0.143	0.12	0.159	0.863	0.848	0.879	0.761	0.398	0.338	0.346	0.347	0.354	0.449	0.445	0.551	0.39
NCI-H1299	–	–	–	–	–	–	–	–	–	–	–	–	–	–	0.918	0.953	0.932	0.937
HCC-827	0.41	0.418	0.414	0.412	0.144	0.282	0.262	0.282	0.255	0.383	0.398	0.412	0.414	0.335	0.668	0.594	0.689	0.587
201T	0.967	0.716	0.886	0.923	0.792	0.357	0.326	0.311	0.36	0.387	0.343	0.438	0.44	0.431	0.845	0.884	0.841	0.867
HCC-15	–	0.382	0.371	0.424	0.283	0.228	0.235	0.215	0.225	–	0.398	0.521	0.498	0.484	0.745	0.73	0.738	0.667
NCI-H2347	–	0.57	0.52	0.439	0.399	0.46	0.489	0.451	0.434	–	0.376	0.498	0.641	0.337	0.554	0.541	0.615	0.593
NCI-H596	–	0.741	0.856	0.779	0.567	0.533	0.569	0.483	0.479	–	0.654	0.748	0.762	0.685	0.7	0.664	0.742	0.745
LXF-289	0.178	0.155	0.177	0.173	0.168	0.897	0.827	0.916	0.91	0.142	0.482	0.509	0.488	0.52	1.14	1.09	1.03	1.04
NCI-H1755	0.549	0.583	0.559	0.483	0.486	0.421	0.407	0.419	0.402	0.409	0.595	0.642	0.59	0.59	0.944	0.851	0.888	0.798
NCI-H2405	0.665	0.694	0.807	0.759	0.561	1.02	1.01	0.989	1.08	0.321	0.278	0.405	0.372	0.357	0.851	0.879	0.898	0.861
NCI-H2170	0.704	0.553	0.565	0.403	0.169	0.271	0.275	0.253	0.274	0.351	0.408	0.455	0.359	0.198	0.631	0.568	0.649	0.499
NCI-H1648	0.361	0.215	0.689	0.361	0.325	0.615	0.922	0.81	0.66	–	–	–	–	–	1.13	0.76	1.3	0.679
NCI-H2342	0.495	0.489	0.455	0.538	0.354	0.758	0.773	0.892	0.777	0.511	0.557	0.574	0.51	0.489	0.792	0.489	0.446	0.396
HARA	–	0.0893	0.0933	0.0794	0.119	0.206	0.206	0.26	0.237	–	0.307	0.434	0.399	0.337	0.826	0.784	0.866	0.856
H3255	0.317	0.45	0.591	0.527	0.282	0.598	0.553	0.583	0.554	0.37	0.327	0.314	0.299	0.224	0.641	0.458	0.56	0.526
NCI-H1563	–	–	–	–	–	0.736	0.751	0.723	0.705	0.626	0.645	0.69	0.76	0.688	–	–	–	–
EBC-1	–	–	–	–	–	–	–	–	–	–	–	–	–	–	0.742	0.75	0.681	0.635
A549	–	–	–	–	–	–	–	–	–	–	–	0.192	0.137	0.112	0.302	0.321	0.357	0.332
NCI-H727	0.602	–	0.704	0.453	0.391	–	–	–	–	–	–	0.536	0.511	0.508	0.691	0.697	0.823	0.677
NCI-H1623	0.423	0.344	–	0.379	0.154	–	–	–	–	0.546	0.494	–	0.659	0.261	–	–	–	–

Source: the supplement of paper PMC10307832
